Results taken from publication PMC11795524, “Melanin-Binding-Based Discovery of Topically Instilled Carbonic Anhydrase Inhibitors for Targeted Delivery and Prolonged Action in the Eye” (Molecular Pharmaceutics, 2025).
Several values for one entry are separate records, joined by “and”; a condition that tells them apart may be missing. Equal values may be shown once.

Assays:
[1] = test system: albino rabbits (New Zealand White); assay: IOP study in albino rabbits after single eye drop; assay type: in vivo, rabbit; details: single 25 μL eye drop; CAI 0.5 or 1.0%, dorzolamide 2%; n = 5
Experimental: (§1) Five 3–5 months old albino (New Zealand White, all females) and five 3–6 months old pigmented rabbits (Chinchilla Bastard, 1 male and 4 females) were purchased from Charles River Laboratories, UK and Germany, respectively. Prior to the experiments, the rabbits were habituated to handling, and the baseline values of IOP were measured. During the experiments, rabbits weighed 2.4–4.0 kg.
First, stock solutions of CAIs (250 mg/mL) in dimethyl sulfoxide (Sigma-Aldrich, Germany) were prepared. These stock solutions were diluted with PBS (pH 7.4) to obtain 1 mg/mL (0.1%) or 10 mg/mL (1%) solutions. Water-solubility of the compounds was enhanced with 2-hydroxypropyl-β-cyclodextrin (Sigma-Aldrich, Germany) (Table 1).
(§2) The CAI solutions were tested in albino rabbits (eye drops of 0.1, and 0.5 or 1.0%) and in pigmented rabbits (0.5 or 1.0%). The novel CAI concentrations in solutions were determined based on the drug solubility with the aim to load the highest possible drug concentration to the single eye drop.
(§3) The IOP levels in the rabbits were measured with a tonometer (Tonometer Pro, Icare Finland Ltd.). After baseline IOP measurements, a single eye drop (25 μL) was applied to the left eye, whereas the right eye was not treated. After eye drop instillation, the eyelids were kept open manually for 1 min. The IOP was measured from both eyes of the rabbits at 0.5, 1, 2, 3, 4, 5, 6, 7, and 8 h after eye drop instillation. In the case of the pigmented rabbits, the measurements were continued until 10 h postinstillation, and further until the IOP had returned to the normal baseline.
(§4) The CAIs were tested in the same rabbits to minimize interindividual data variation. Washout periods of at least 3 days were used between instillation of different compounds. The experiments started always at 8 a.m. to eliminate bias due to diurnal IOP fluctuation. At each time point, the pressure was measured three times with the same eye, and the average values were calculated and used in data analysis.

[2] = test system: pigmented rabbits (Chinchilla Bastard); assay: IOP study in pigmented rabbits after single eye drop; assay type: in vivo, rabbit
Experimental: as §1
First, stock solutions of CAIs (250 mg/mL) in dimethyl sulfoxide (Sigma-Aldrich, Germany) were prepared. These stock solutions were diluted with PBS (pH 7.4) to obtain 1 mg/mL (0.1%) or 10 mg/mL (1%) solutions.
as §2
Baseline IOP of pigmented rabbits was raised with two intravitreal triamcinolone acetonide injections (Triesence 40 mg/mL, Novartis Finland Ltd.) with 1 week interval to each eye. This method[25],[26] may induce ocular hypertension even up to 60 days in rabbits.[25]
The rabbits were anesthetized with 0.4 mg/kg, s.c. medetomidine (Domitor vet 1 mg/mL, Orion Pharma, Espoo, Finland) and 20 mg/kg s.c. ketamine (Ketaminol vet 50 mg/mL, Pfizer Oy Animal Health, Espoo, Finland). Mydriasis was induced with topical tropicamide eyedrops (Oftan Tropicamid 5 mg/mL, Santen Pharmaceutical Co., Ltd., Tampere, Finland) and the ocular surface was anesthetized with oxybuprocaine eye drop (Oftan Obucain 4 mg/mL, Santen Pharmaceutical Co., Ltd., Tampere, Finland). Thereafter, intravitreal injection of triamcinolone acetonide (100 μL) was given with a 31G needle and syringe. After injection, the eyes were moisturized with carbomer gel (Viscotears 2 mg/g, Dr. Gerhard Mann chem.-pharm. Fabrik GmbH, Berlin, Germany) and the anesthesia was antagonized with 1 mg/kg atipamezole s.c. (Antisedan vet 5 mg/mL, Orion Pharma, Espoo, Finland).
After the second injection, IOP was allowed to settle for 10 days before the experiments were performed. […] Induction of ocular hypertension is presented in Appendix Figure 3. The IOP-lowering effects of the molecules were investigated sequentially, each test initiating once baseline IOP levels was attained.
as §3, §4

C/C(=N\Nc1ccc(S(N)(=O)=O)cc1)c1cccnc1 [A01]
AUC0-last ± SD in albino rabbits (IOP decrease vs time) [1]: 19.95 ± 7.16 mmHg x h
duration of IOP reduction ([2]; hypertensive pigmented rabbits, single eye drop): 14 days
duration of IOP decrease ([2]; pigmented rabbits, single eye drop): 2 weeks
ratio (AUCpigm/AUCalbino) of IOP response ([2]; pigmented vs albino rabbits): 85 and 85.5
